Experimental data from patent US9464080B2, “Substituted pyrido[2,3-d]pyrimidines for dry skin and anti-ageing application” (L'OREAL, priority 2012, dated 2016).

Tests used:
Format in all cases: cell-based
[1] = test system: Ki67; assay: Ki67 immunolabelling of treated Episkin reconstructed epidermis
Description: (§1) The reconstructed epidermises, received from the Episkin company at six days of reconstruction, were placed back into culture, when received, in 3.5 ml of differentiation medium (Episkin™ medium) under insert (in emersion) in an incubator for 48 hours (37° C., 5% CO2).
(§2) The epidermises were subsequently contacted with the test compounds systemically. The Episkin™ differentiation culture medium is replaced by a differentiation medium containing the test compounds with 0.1% of final DMSO vehicle. The epidermises were placed back into culture in the incubator for 48 hours. A new systemic treatment is carried out for a further 72 hours in culture in the incubator.
(§3) For the treatment on Episkin™, each test compound was prepared at the time of use by being weighed out and dissolved at 10 mM in DMSO, then used to treat 3 samples of reconstructed epidermis. […] The positive controls used were vitamin D3, retinol and calcipotriol (a vitamin D3 analogue).
(§4) The epidermises were withdrawn (3 epidermises per treatment) for histological analysis and protein extracts (a single reconstructed epidermis is used for the histological study and the protein extract).
The samples of epidermis were enclosed in OCT for freezing in liquid nitrogen and then stored at −80° C. […]

[2] = test system: Episkin™ reconstructed epidermis; assay: HES morphological observation of treated Episkin reconstructed epidermis; settings: systemic treatment over 5 days
Description: as §1, §2, §3, §4
Morphological control of the reconstructed epidermises treated was carried out using HES (Hematoxylin—Eosin—Saffron) staining in accordance with a standard protocol on the histological sections of the samples enclosed in paraffin (toluene bath: thrice 15 minutes; 100° alcohol baths; twice one minute; 95° alcohol baths: one minute; rinsing in water baths; hematoxylin bath: once 2 minutes; rinsing in water baths; brief immersion in a hydrochloric acid bath; rinsing with water; eosin bath: once one minute; rinsing with water; brief immersion in a 100° alcohol bath; saffron bath (5 minutes); brief immersion in a 100° alcohol bath; toluene bath: thrice 2 minutes).

[3] = test system: CD44; assay: CD44 immunolabelling of treated Episkin reconstructed epidermis; settings: for CD44: Episkin, systemic treatment over 5 days, effect generally rated for the highest concentration used (10 μM)
Description: as §1, §2
For the treatment on Episkin™, each test compound was prepared at the time of use by being weighed out and dissolved at 10 mM in DMSO, then used to treat 3 samples of reconstructed epidermis. Furthermore, each compound under test was employed at a final 1 and […] in the culture medium (0.1% final DMSO). The positive controls used were vitamin D3, retinol and calcipotriol (a vitamin D3 analogue).
as §4
The samples of epidermis were enclosed in OCT for freezing in liquid nitrogen and then stored at −80° C. The resulting blocks were cut to a thickness of 7 μm using a cryostat, and the slices were dried and stored at −20° C. while awaiting immunolabelling.
The labels selected for the immunolabelling are as follows: • Ki67 to provide information on any change in cell proliferation in the basal layer, and • CD44 to provide information on any change in the metabolism of the living layers and in the proliferation/differentiation balance.

[4] = effect generally rated for the highest concentration used (10 μM)

## CC1=C(/C=C/C(C)=C/C=C/C(C)=C/CO)C(C)(C)CCC1 [Retinol, retinol, reference compound]
[1]; Episkin, systemic treatment over 5 days, 100 μM
  Ki67: 0
[2]; 100 μM
  HES: 0

## CCOC(=O)C1=C(C)Nc2c(c(=O)n(C)c(=O)n2C)C1CC(C)C (stereo not drawn) [Compound (4)]
[3]; Episkin samples treated, FIG. 3
  CD44 immunolabelling: increase in CD44
[3]
  CD44: ++ (*)
[1]; Episkin samples treated, FIG. 2
  Ki67 labelling: strong increase in Ki67 labelling
[2]; [4]
  HES: 0

## CCOC(=O)C1=C(C)Nc2c(c(=O)n(C)c(=O)n2C)C1c1cccc(Oc2ccccc2)c1 (stereo not drawn) [Compound (2)]
[3]
  CD44: 0
[2]; [4]
  HES: 0

## C=C1CC[C@H](O)C/C1=C/C=C1\CCC[C@]2(C)[C@@H]([C@H](C)CCCC(C)C)CC[C@@H]12 [Vitamin D3, vitamin D3, reference compound]
[2]; [4]
  HES: 0
